Results published in ChEMBL document CHEMBL4419167, “Compositions and methods for treating respiratory injury or disease” (2018).
Activity calls are given as the source filed them.

Assays:
Assay type in all cases: functional, organism-based
[1] = test system: Mus musculus; test: Suppression of lung injury in mouse model of Pseudomonas aeruginosa PA103 infection-induced pneumonia assessed as reduction in neutrophil infiltration at 30 or 150 ug, ip pre-treated before infection by May-Grunwald and Geimsa staining based assay
[2] = test system: Mus musculus; test: Suppression of IMQ-induced psoriasis in BALB/c mouse model of skin inflammation assessed as reduction in spleen weight at 1 or 5 mg/kg dosed via drinking water on daily basis
[3] = test system: Mus musculus; test: Suppression of IMQ-induced psoriasis in BALB/c mouse model of skin inflammation assessed as effect on gross appearance at 1 or 5 mg/kg dosed via drinking water on daily basis
[4] = test system: Mus musculus; test: Suppression of IMQ-induced psoriasis in BALB/c mouse model of skin inflammation assessed as reduction in psoriasis index at 1 or 5 mg/kg applied topically on daily basis
[5] = test system: Mus musculus; test: Antiinflammatory activity in C57/BL mouse model of lung transplant acute rejection transplanted with BALB/C mouse left lung assessed as amelioration of neutrophilia infiltration at 5 mg/kg/day, ip for 2 days followed by dosing at 5 mg/kg/day via drinking water for 5 days
[6] = test system: Mus musculus; test: Suppression of lung injury in mouse model of Pseudomonas aeruginosa PA103 infection-induced pneumonia assessed as reduction in lavage IL-1beta levels at 30 or 150 ug, ip pre-treated before infection
[7] = test system: Mus musculus; test: Suppression of smoke-induced chronic lung inflammation in mouse assessed as reduction in lavage IFNgamma levels at 100 ug, ip administered as single dose injected after 5 weeks cigarette smoke exposure
[8] = test system: Mus musculus; test: Suppression of IMQ-induced psoriasis in BALB/c mouse model of skin inflammation assessed as reduction in ear thickness at 1 or 5 mg/kg dosed via drinking water on daily basis
[9] = test system: Mus musculus; test: Suppression of IMQ-induced psoriasis in BALB/c mouse model of skin inflammation assessed as reduction in ear thickness at 1 or 5 mg/kg applied topically on daily basis
[10] = test system: Mus musculus; test: Suppression of smoke-induced chronic lung inflammation in mouse assessed as reduction in lavage IL12 levels at 100 ug, ip administered as single dose injected after 5 weeks cigarette smoke exposure
[11] = test system: Mus musculus; test: Suppression of smoke-induced chronic lung inflammation in mouse assessed as reduction in lavage IL10 levels at 100 ug, ip administered as single dose injected after 5 weeks cigarette smoke exposure
[12] = test system: Mus musculus; test: Suppression of IMQ-induced psoriasis in BALB/c mouse model of skin inflammation assessed as effect on gross appearance at 1 or 5 mg/kg applied topically on daily basis
[13] = test system: Mus musculus; test: Suppression of smoke-induced chronic lung inflammation in mouse assessed as reduction in lavage IL2 levels at 100 ug, ip administered as single dose injected after 5 weeks cigarette smoke exposure
[14] = test system: Mus musculus; test: Suppression of IMQ-induced psoriasis in BALB/c mouse model of skin inflammation assessed as reduction in spleen weight at 1 or 5 mg/kg applied topically on daily basis
[15] = test system: Mus musculus; test: Suppression of lung injury in mouse model of Pseudomonas aeruginosa PA103 infection-induced pneumonia assessed as reduction in lavage cell counts at 30 or 150 ug, ip pre-treated before infection
[16] = test system: Mus musculus; test: Suppression of dexamethasone-induced muscle atrophy in C57BL mouse assessed as reduction in TRAF6 protein in TA muscle at 0.5 to 5 mg/kg/day dosed via drinking water by immunoblotting analysis
[17] = test system: Mus musculus; test: Antiinflammatory activity in C57/BL mouse model of lung transplant acute rejection transplanted with BALB/C mouse left lung assessed as reduction in cell infiltration in lung at 5 mg/kg/day, ip for 2 days followed by dosing at 5 mg/kg/day via drinking water for 5 days
[18] = test system: Mus musculus; test: Suppression of lung injury in mouse model of Pseudomonas aeruginosa PA103 infection-induced pneumonia assessed as reduction in cell infiltration at 30 or 150 ug, ip pre-treated before infection by H and E staining based assay
[19] = test system: Mus musculus; test: Suppression of IMQ-induced psoriasis in BALB/c mouse model of skin inflammation assessed as reduction in psoriasis index at 1 or 5 mg/kg dosed via drinking water on daily basis
[20] = test system: Mus musculus; test: Suppression of dexamethasone-induced muscle atrophy in C57BL mouse assessed as prevention of muscle wasting in TA muscle at 0.5 to 5 mg/kg/day dosed via drinking water by H and E staining based assay
[21] = test system: Mus musculus; test: Suppression of smoke-induced chronic lung inflammation in mouse assessed as reduction in lavage TNFalpha levels at 100 ug, ip administered as single dose injected after 5 weeks cigarette smoke exposure
[22] = test system: Mus musculus; test: Suppression of smoke-induced chronic lung inflammation in mouse assessed as reduction in lavage protein concentration at 100 ug, ip administered as single dose injected after 5 weeks cigarette smoke exposure
[23] = test system: Mus musculus; test: Suppression of lung injury in mouse model of Pseudomonas aeruginosa PA103 infection-induced pneumonia assessed as reduction in lavage protein concentration at 30 or 150 ug, ip pre-treated before infection
[24] = test system: Mus musculus; test: Suppression of smoke-induced chronic lung inflammation in mouse assessed as reduction in lavage IL6 levels at 100 ug, ip administered as single dose injected after 5 weeks cigarette smoke exposure
[25] = test system: Mus musculus; test: Suppression of lung injury in mouse model of Pseudomonas aeruginosa PA103 infection-induced pneumonia assessed as reduction in lavage IL6 levels at 30 or 150 ug, ip pre-treated before infection
[26] = test system: Mus musculus; test: Suppression of smoke-induced chronic lung inflammation in mouse assessed as reduction in lavage cell counts at 100 ug, ip administered as single dose injected after 5 weeks cigarette smoke exposure
[27] = test system: Mus musculus; test: Suppression of lung injury in mouse model of Pseudomonas aeruginosa PA103 infection-induced pneumonia assessed as reduction in lavage TNFalpha levels at 30 or 150 ug, ip pre-treated before infection
[28] = test system: Mus musculus; test: Suppression of smoke-induced chronic lung inflammation in mouse assessed as reduction in lavage IL-1beta levels at 100 ug, ip administered as single dose injected after 5 weeks cigarette smoke exposure
[29] = test system: Mus musculus; test: Suppression of dexamethasone-induced muscle atrophy in C57BL mouse assessed as reduction in tibialis anterior muscle loss at 0.5 to 5 mg/kg/day dosed via drinking water
[30] = test system: Mus musculus; test: Suppression of lung injury in mouse model of Pseudomonas aeruginosa PA103 infection-induced lung injury assessed as reduction in lavage IL6 levels at 100 ug, ip pre-treated before infection
[31] = test system: Mus musculus; test: Suppression of lung injury in mouse model of influenza A virus H1N1 infection-induced lung injury assessed as decrease in lung elastance at 30 ug/ml dosed via drinking water
[32] = test system: Mus musculus; test: Suppression of lung injury in mouse model of influenza A virus H1N1 infection-induced lung injury assessed as increase in mouse survival at 30 ug/ml dosed via drinking water
[33] = test system: Mus musculus; test: Suppression of lung injury in mouse model of Pseudomonas aeruginosa PA103 infection-induced lung injury assessed as reduction in lavage protein concentration at 100 ug, ip pre-treated before infection
[34] = test system: Mus musculus; test: Suppression of lung injury in mouse model of influenza A virus H1N1 infection-induced lung injury assessed as increase in lung compliance at 30 ug/ml dosed via drinking water
[35] = test system: Mus musculus; test: Suppression of lung injury in mouse model of Pseudomonas aeruginosa PA103 infection-induced lung injury assessed as reduction in lung resistance at 100 ug, ip pre-treated before infection
[36] = test system: Mus musculus; test: Suppression of lung injury in mouse model of Pseudomonas aeruginosa PA103 infection-induced lung injury assessed as reduction in lavage IL-1beta levels at 100 ug, ip pre-treated before infection
[37] = test system: Mus musculus; test: Suppression of lung injury in mouse model of Pseudomonas aeruginosa PA103 infection-induced lung injury assessed as reduction in lung elastance at 100 ug, ip pre-treated before infection
[38] = test system: Mus musculus; test: Suppression of lung injury in mouse model of influenza A virus H1N1 infection-induced lung injury assessed as decrease in lavage cell counts at 30 ug/ml dosed via drinking water
[39] = test system: Mus musculus; test: Suppression of lung injury in mouse model of influenza A virus H1N1 infection-induced lung injury assessed as decrease in lavage protein concentration at 30 ug/ml dosed via drinking water
[40] = test system: Mus musculus; test: Suppression of lung injury in mouse model of Pseudomonas aeruginosa PA103 infection-induced lung injury assessed as improve in lung volume at 100 ug, ip pre-treated before infection
[41] = test system: Mus musculus; test: Suppression of lung injury in mouse model of influenza A virus H1N1 infection-induced lung injury assessed as decrease in lung edema at 30 ug/ml dosed via drinking water
[42] = test system: Mus musculus; test: Suppression of lung injury in mouse model of influenza A virus H1N1 infection-induced lung injury assessed as decrease in cell infiltration at 30 ug/ml dosed via drinking water by H and E staining based assay
[43] = test system: Mus musculus; test: Suppression of lung injury in mouse model of Pseudomonas aeruginosa PA103 infection-induced lung injury assessed as increase in compliance at 100 ug, ip pre-treated before infection
[44] = test system: Mus musculus; test: Suppression of lung injury in mouse model of Pseudomonas aeruginosa PA103 infection-induced lung injury assessed as reduction in lavage cell counts at 100 ug, ip pre-treated before infection
[45] = test system: Mus musculus; test: Suppression of lung injury in mouse model of Pseudomonas aeruginosa PA103 infection-induced lung injury assessed as reduction in lavage TNFalpha levels at 100 ug, ip pre-treated before infection
[46] = test system: Mus musculus; test: Suppression of lung injury in mouse model of Pseudomonas aeruginosa PA103 infection-induced lung injury assessed as reduction in cell infiltration at 100 ug, ip pre-treated before infection by H and E staining based assay

Measured: Activity

c1cnc(-c2ccc(CNCCNCc3ccc(-c4ncccn4)cc3)cc2)nc1
not listed: [30] | [31] | [32] | [33] | [34] | [35] | [36] | [37] | [38] | [39] | [40] | [41] | [42] | [43] | [44] | [45] | [46]
active: all other assays above

c1ccc(-c2ccc(CNCCNCc3ccc(-c4ccccn4)cc3)cc2)nc1
active: [30] | [31] | [32] | [33] | [34] | [35] | [36] | [37] | [38] | [39] | [40] | [41] | [42] | [43] | [44] | [45] | [46]
